Reference: patent US20240408064A1, “RAS INHIBITORS, COMPOSITIONS AND METHODS OF USE THEREOF” (GENETOLEAD INC., priority 2021, published 2024)
pKd: −log10 of the molar value. Entries after “also recorded” stand apart in the source; their conditions may differ.

Tests used:
HRas^G12V [1] = target: T1, HRas^G12V (Homo sapiens (Human), UniProt P01112, G12V); test: Overall binding/activity in the various assays (NMR consensus binding)
Method in brief: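 Fragments (240 µM each, pooled) screened against 50 µM HRas^G12V in 25 mM sodium phosphate pH 7.4, 150 mM NaCl, 5 mM MgCl2, 1 mM TCEP-d16 by 1H-decoupled 1D 19F NMR. Hits confirmed by ligand- and protein-observed 1D 1H, STD and T2-CPMG (aggregation check); consensus binding ranked, with 15N HSQC for sites and Kd.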

KRAS^G12D-GDP [2] = target: T2, KRAS^G12D-GDP (Homo sapiens (Human), UniProt P01116, G12D); test: NMR Kd, KRAS^G12D-GDP; assay type: binding; conditions: 1H 1D protein-observed NMR, read-out: 1H 1D PO NMR Kd
Protocol: ^1H/^15N Fast-HSQC experiments (Mori et al., Journal of Magnetic Resonance, Series B, Volume 108, Issue 1, July 1995, Pages 94-98) were recorded at a protein concentration of 50-100 μM.
Dissociation constants were obtained by monitoring changes in chemical shifts as a function of ligand concentration. The changes in chemical shifts (d) were calculated according to the following equation (Williamson, Progress in Nuclear Magnetic Resonance Spectroscopy, Volume 73, August 2013, Pages 1-16): d=√(1/2[δ_H^2+[…]]), Where δ are the changes in chemical shift in ppm for ^1H and ^15N and the correction factor (α) was set at 0.15.
^1H 1D protein-observed experiments were recorded with 15-50 μM protein. The standard Bruker 1D ^1H sequence with excitation sculpting (zgesgp) was employed. A relaxation delay of 1 s was employed in order to use 256 scans while still keeping experimental time fairly short. Changes in protein chemical shift or peak intensity in the methyl region were monitored against compound concentration.
(§1) The activity of compounds of the invention regarding KRAS^G12D-GDP was measured in the same as in Example 80. The results obtained with the compounds in the various assays described above are depicted in Table 23.

KRAS^G12D-GDP [3] = target: T2, KRAS^G12D-GDP; test: Overall activity in the various assays, KRAS^G12D-GDP; assay type: binding
Protocol: as §1

GDP-HRas^G12V = GDP-HRas^G12V (Homo sapiens (Human), UniProt P01112, G12V); test: Dissociation constant by microscale thermophoresis (MST); assay type: binding
Protocol: MST experiments were performed with a Monolith NT.115 Pico (NanoTemper Technologies, Munich, Germany). […] Data was acquired in PBS buffer with 0.1% pluronic acid. Data was analyzed with the NanoTemper MO.Affinity Analysis software.

wild type HRAS [4] = target: T3, wild type HRAS (Homo sapiens (Human), UniProt P01112); test: 19F DLB score, wild type HRAS; assay type: binding
Protocol: (§2) Since the fragment library was curated using phosphate buffer, 25 mM sodium phosphate pH 7.4, 150 mM NaCl, 5 mM MgCl2, 1 mM TCEP-d16, 10% D2O Fresh TCEP was used for experiments. Screening was performed using ^1H-decoupled 1D ^19F experiment Bruker experiment (zgfhigqn.2) with 64 scans and a relaxation delay of 5 seconds. 50 μM HRas^G12V and 240 μM of each fragment in pools (mixtures) were used.
(§3) Hit confirmation was performed using the same ^19F experiment as the screen. Ligand-observed 1D ^1H, protein-observed 1D ^1H, ^1H T2-CPMG as well as Saturation Transfer Difference (STD) experiments were also run on the same samples. Ligand-observed 1D ^1H was run using the standard Bruker sequence with excitation sculpting (zgesgp) with a relaxation delay of 10 seconds and 16 scans per spectrum. Protein-observed 1D ^1H was performed using the same sequence with a relaxation delay of 1 second and 256 scans in order to increase the signal-to-noise of the protein resonances, while keeping the experimental time relatively short. The ^1H T2-CPMG experiment employed a modified version of the Bruker 1D ^1H zgesgp experiment with the addition of a CPMG pulse train after the first 90° excitation pulse. Total duration for each spin echo was fixed at 1 ms (τ=500 μs), while the number of echoes in the pulse train was varied according to the total time (T). The number of scans for each spectrum was 4 and eight delay times were run on each sample, ranging from 1 ms to 800 ms.
(§4) The activity of compounds of the invention regarding wild type HRAS was measured in the same as in Example 80. The results obtained with the compounds in the various assays described above are depicted in Table 2.

wild type HRAS [5] = target: T3, wild type HRAS; test: 19F T2-CPMG score, wild type HRAS; assay type: binding
Protocol: as §2, §3, §4

HRas^G12V [6] = target: T1, HRas^G12V; test: Dissociation constant by SPR; assay type: binding
Protocol: SPR experiments were performed using the P4SPR from Affinité Instruments using Ni-NTA immobilization chips and his-tagged protein. Ni-NTA coated surfaces allow the immobilization of his-tagged proteins by chelation of histidine residues to the nickel ion. The sensor chip was inserted into a quad inlet model P4SPR (with 4 independent channels). Once the instrument was turned on, the baseline was stabilized by deionized (DI) water, followed by signal stabilization by the running buffer. His-tagged protein at 10 μg/mL was injected into all 4 channels of the P4SPR and was left to react for 20 min. The sensor chip was then washed with DI water. The lowest concentration of the ligand was injected into the channels of the P4SPR and was left to react for 10 min. The SPR shift was saved. Then, a higher concentration of the ligand was injected, and the sample injection steps were repeated until all 5 concentrations have been added. The KD of the binding interaction between the ligand and protein was determined by using the affinity curve fitting function in the P4SPR Control software.

CC(C)N1CCC(NC(=O)Cc2c[nH]c3cc(F)ccc23)CC1 [Compound 10018]
Activity ranking on HRas^G12V (in words) (HRas^G12V [1]): More active | pKd (KRAS^G12D-GDP [2]): 2.20 to 2.30 | Activity ranking on KRAS^G12D-GDP (in words) (KRAS^G12D-GDP [3]): most active

CN(C)CCOc1cccc(NC(=O)Cc2c[nH]c3cc(F)ccc23)c1 [Compound 10095, N-(3-(2-(dimethylamino)ethoxy)phenyl)-2-(6-fluoro-1H-indol-3-yl)acetamide]
pKd (GDP-HRas^G12V): 4.63 to 4.72 | Activity ranking on HRas^G12V (in words) (HRas^G12V [1]): More active; also recorded: Most active | 19F DLB Score (wild type HRAS [4]): 4.57 | 19F T2-CPMG Score (wild type HRAS [5]): <LLOQ

O=C(Cc1c[nH]c2cc(F)ccc12)N1CCC(O)CC1 [Compound 10086]
pKd (GDP-HRas^G12V): 2.68 to 2.74 | Activity ranking on HRas^G12V (in words) (HRas^G12V [1]): More active | pKd (KRAS^G12D-GDP [2]): 2.39 to 2.72 | Activity ranking on KRAS^G12D-GDP (in words) (KRAS^G12D-GDP [3]): most active

CN(C)CC(=O)Nc1cccc(NC(=O)Cc2c[nH]c3cc(F)ccc23)c1 [compound 10097]
pKd (GDP-HRas^G12V): 4.08 to 4.19 | pKd (HRas^G12V [6]): 4.51 | Activity ranking on HRas^G12V (in words) (HRas^G12V [1]): More active; also recorded: Most active | 19F DLB Score (wild type HRAS [4]): 7.61 | 19F T2-CPMG Score (wild type HRAS [5]): <LLOQ
